These results are taken from patent US20250276957A1, “CRYSTALLINE FORMS OF AN IL-17 INHIBITOR” (Novartis AG, priority 2022, published 2025).

The target in one series is T1, Human IL-17A x IL-17RA (Homo sapiens, UniProt Q16552).
T1 sequence (Q16552 24-155): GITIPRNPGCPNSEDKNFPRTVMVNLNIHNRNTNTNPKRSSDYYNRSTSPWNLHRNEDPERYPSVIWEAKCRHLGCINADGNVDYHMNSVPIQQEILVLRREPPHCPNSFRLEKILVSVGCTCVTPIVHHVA
The settings on record: biotinylated human IL-17A 5 nM, AF647-labeled human IL-17RA 30 nM; read-out: IL17AA FRET/IL17Rawt IC50; cited from earlier work.

A short description of series [1]: Dynamic vapor sorption (DVS) and stability at ambient temperature and humidity. Format: physicochemical. The settings on record: water loss occurs quickly during handling. An excerpt: Due to the unstable nature of hydrate HA at ambient temperature and humidity, water loss occurs quickly during handling of the samples and the high water content observed by DVS analysis was not seen in DSC or TGA analysis. This water loss behavior is considered to explain the different DSC and TGA results for the two hydrate HA samples.

The structures appear in SMILES notation. pIC50: −log10 of the molar value.

Consider `Cc1cc[n+]([O-])c(C)c1-c1ccc(NC(=O)[C@@H](NC(=O)c2ccnn2C)[C@H]2CCCc3ccccc32)cc1` [2,4-dimethyl-3-(4-((S)-2-(1-methyl-1H-pyrazole-5-carboxamido)-2-((S)-1,2,3,4-tetrahydronaphthalen-1-yl)acetamido)phenyl)pyridine 1-oxide], for which, on Human IL-17A x IL-17RA, the pIC50 was 8.10.
With `Cc1cc[n+]([O-])c(C)c1-c1ccc(NC(=O)[C@@H](NC(=O)c2ccnn2C)[C@H]2CCCc3ccccc32)cc1` [hydrate HA, 2,4-dimethyl-3-(4-((S)-2-(1-methyl-1H-pyrazole-5-carboxamido)-2-((S)-1,2,3,4-tetrahydronaphthalen-1-yl)acetamido)phenyl)pyridine 1-oxide], the “stability at ambient temperature and humidity” value in series [1] is given as “unstable”.
